From patent US11345712B2, “Protein-targeting compounds and pharmaceutical compositions thereof, and their therapeutic applications” (BioTheryX, Inc., priority 2019, dated 2022) come the findings set out here.

The subject of the assay is MOLM-13 cells. The assay can be described thus: MOLM-13 cell viability assay (CellTiter-Glo). It is filed as cell-based. The settings on record: Homo sapiens, MOLM-13, 72 h, 3 days, concentration of 1 μM, read-out: Antiproliferative Activity (inhibition, MOLM-13 cell viability). The procedure: MOLM-13 cells were cultured in RPMI 1640 media supplemented with 10% fetal bovine serum, streptomycin, and penicillin. The cells were plated in white walled 96-well plates at 2,500 cells/well. The cells were incubated in DMSO (control) or an indicated compound for 3 days at 37° C. and 5% CO2. Following the incubation period, 100 μL of CELLTITER-GLO® (CTG) reagent was added to each well. Following a 10 minutes incubation with shaking, luminescence was measured using an ENVISION® Multimode plate reader.

For the compound `CC(C)(C)C1CCN(C(=O)C(=O)NCc2ccc3c(c2)CN(C2CCC(=O)NC2=O)C3=O)CC1` (stereo not shown) [Compound I-62, 2-(4-(tert-butyl)piperidin-1-yl)-N-((2-(2,6-dioxopiperidin-3-yl)-1-oxoisoindolin-5-yl)methyl)-2-oxoacetamide], the cytotoxicity at 1 µM is over 80%.
With `CC(C)[C@@H](N)C(=O)OCN1C(=O)CCC(N2Cc3c(CNC(=O)C(=O)c4ccc(C5(C(F)(F)F)CC5)cc4)cccc3C2=O)C1=O` (stereo partly drawn) [Compound I-64, (2,6-dioxo-3-(1-oxo-4-((2-oxo-2-(4-(1-(trifluoromethyl)cyclopropyl)-phenyl)acetamido)methyl)isoindolin-2-yl)piperidin-1-yl)methyl D-valinate] the figure was over 80%.
To `O=C1CCC(N2Cc3c(CCNC(=O)C(=O)c4ccc(C5(C(F)(F)F)CC5)cc4)cccc3C2=O)C(=O)N1` (stereo not shown) [Compound I-65, N-(2-(2-(2,6-dioxopiperidin-3-yl)-1-oxoisoindolin-4-yl)ethyl)-2-oxo-2-(4-(1-(trifluoromethyl)cyclopropyl)phenyl)acetamide] belongs under 25%.
`O=C1CCC(N2Cc3c(CNC(=O)C(=O)c4ccc(C5CCNCC5)cc4)cccc3C2=O)C(=O)N1` (stereo not shown) [Compound I-66, N-((2-(2,6-dioxopiperidin-3-yl)-1-oxoisoindolin-4-yl)methyl)-2-oxo-2-(4-(piperidin-4-yl)phenyl)acetamide]: the cytotoxicity at 1 µM is under 25%.
`CC(C)(C)C1CCC(C(=O)C(=O)NCc2cccc3c2CN(C2CCC(=O)NC2=O)C3=O)CC1` (stereo not shown) [Compound I-67, 2-(4-(tert-butyl)cyclohexyl)-N-((2-(2,6-dioxopiperidin-3-yl)-1-oxoisoindolin-4-yl)methyl)-2-oxoacetamide]: the cytotoxicity at 1 µM lay in the range of 25 to 50%.
With `CC(C)(C)C1CCC(C(=O)C(=O)NCc2ccc3c(c2)CN(C2CCC(=O)NC2=O)C3=O)CC1` (stereo not shown) [Compound I-68, 2-(4-(tert-butyl)cyclohexyl)-N-((2-(2,6-dioxopiperidin-3-yl)-1-oxoisoindolin-5-yl)methyl)-2-oxoacetamide] the figure was under 25%.
With `Cc1ccc(C(=O)C(=O)NCc2cccc3c2CN(C2CCC(=O)NC2=O)C3=O)cc1` (stereo not shown) [Compound I-72, N-((2-(2,6-dioxopiperidin-3-yl)-1-oxoisoindolin-4-yl)methyl)-2-oxo-2-(p-tolyl)acetamide] the figure was under 25%; with `O=C1CCC(N2Cc3c(CNC(=O)C(=O)c4ccc(F)c(F)c4)cccc3C2=O)C(=O)N1` (stereo not shown) [Compound I-73, 2-(3,4-difluorophenyl)-N-((2-(2,6-dioxopiperidin-3-yl)-1-oxoisoindolin-4-yl)methyl)-2-oxoacetamide], under 25%.
To `O=C1CCC(N2Cc3c(CNC(=O)C(=O)c4ccccc4)cccc3C2=O)C(=O)N1` (stereo not shown) [Compound I-74, N-((2-(2,6-dioxopiperidin-3-yl)-1-oxoisoindolin-4-yl)methyl)-2-oxo-2-phenylacetamide] belongs under 25%.
On to `O=C1CCC(N2Cc3c(CNC(=O)C(=O)c4ccc(C(F)(F)F)cc4)cccc3C2=O)C(=O)N1` (stereo not shown) [Compound I-75, N-((2-(2,6-dioxopiperidin-3-yl)-1-oxoisoindolin-4-yl)methyl)-2-oxo-2-(4-(trifluoromethyl)phenyl)acetamide], for which the cytotoxicity at 1 µM fell in the range of 25 to 50%.
With `N#Cc1ccc(C(=O)C(=O)NCc2cccc3c2CN(C2CCC(=O)NC2=O)C3=O)cc1` (stereo not shown) [Compound I-76, 2-(4-cyanophenyl)-N-((2-(2,6-dioxopiperidin-3-yl)-1-oxoisoindolin-4-yl)methyl)-2-oxoacetamide] the figure was under 25%.
As to `O=C1CCC(N2Cc3c(CNC(=O)C(=O)c4ccc(Cl)cc4)cccc3C2=O)C(=O)N1` (stereo not shown) [Compound I-77, 2-(4-chlorophenyl)-N-((2-(2,6-dioxopiperidin-3-yl)-1-oxoisoindolin-4-yl)methyl)-2-oxoacetamide], the cytotoxicity at 1 µM was under 25%.
`COc1ccc(C(=O)C(=O)NCc2cccc3c2CN(C2CCC(=O)NC2=O)C3=O)cc1` (stereo not shown) [Compound I-78, 2-(4-methoxyphenyl)-N-((2-(2,6-dioxopiperidin-3-yl)-1-oxoisoindolin-4-yl)methyl)-2-oxoacetamide]: the cytotoxicity at 1 µM lay in the range of 25 to 50%.
To `COc1cc(OC)c(C(=O)C(=O)NCc2cccc3c2CN(C2CCC(=O)NC2=O)C3=O)c(OC)c1` (stereo not shown) [Compound I-79, 2-(2,4,6-trimethoxyphenyl)-N-((2-(2,6-dioxopiperidin-3-yl)-1-oxoisoindolin-4-yl)methyl)-2-oxoacetamide] belongs under 25%; to `Cc1cc(C)c(C(=O)C(=O)NCc2cccc3c2CN(C2CCC(=O)NC2=O)C3=O)c(C)c1` (stereo not shown) [Compound I-80, 2-(2,4,6-trimethylphenyl)-N-((2-(2,6-dioxopiperidin-3-yl)-1-oxoisoindolin-4-yl)methyl)-2-oxoacetamide], under 25%; to `O=C1CCC(N2Cc3c(CNC(=O)C(=O)c4ccc(F)cc4)cccc3C2=O)C(=O)N1` (stereo not shown) [Compound I-81, 2-(4-fluorophenyl)-N-((2-(2,6-dioxopiperidin-3-yl)-1-oxoisoindolin-4-yl)methyl)-2-oxoacetamide], 25 to 50%.
To `O=C1CCC(N2Cc3c(CNC(=O)C(=O)c4ccccc4F)cccc3C2=O)C(=O)N1` (stereo not shown) [Compound I-82, 2-(2-fluorophenyl)-N-((2-(2,6-dioxopiperidin-3-yl)-1-oxoisoindolin-4-yl)methyl)-2-oxoacetamide] belongs 25 to 50%; to `O=C1CCC(N2Cc3cc(CNC(=O)C(=O)c4ccccc4)ccc3C2=O)C(=O)N1` (stereo not shown) [Compound I-83, N-((2-(2,6-dioxopiperidin-3-yl)-1-oxoisoindolin-5-yl)methyl)-2-oxo-2-phenylacetamide], over 80%.
On to `COc1cc(OC)c(C(=O)C(=O)NCc2ccc3c(c2)CN(C2CCC(=O)NC2=O)C3=O)c(OC)c1` (stereo not shown) [Compound I-84, N-((2-(2,6-dioxopiperidin-3-yl)-1-oxoisoindolin-5-yl)methyl)-2-oxo-2-(2,4,6-trimethoxyphenyl)acetamide], for which the cytotoxicity at 1 µM was 25 to 50%.
`Cc1cc(C)c(C(=O)C(=O)NCc2ccc3c(c2)CN(C2CCC(=O)NC2=O)C3=O)c(C)c1` (stereo not shown) [Compound I-85, N-((2-(2,6-dioxopiperidin-3-yl)-1-oxoisoindolin-5-yl)methyl)-2-oxo-2-(2,4,6-trimethylphenyl)acetamide]: the cytotoxicity at 1 µM lay in the range of 50 to 80%.
With `O=C1CCC(N2Cc3cc(CNC(=O)C(=O)c4ccccc4F)ccc3C2=O)C(=O)N1` (stereo not shown) [Compound I-86, N-((2-(2,6-dioxopiperidin-3-yl)-1-oxoisoindolin-5-yl)methyl)-2-oxo-2-(2-fluorophenyl)acetamide] the figure was 50 to 80%.
With `O=C1CCC(N2Cc3cc(CNC(=O)C(=O)c4ccc(C(F)(F)F)cc4)ccc3C2=O)C(=O)N1` (stereo not shown) [Compound I-87, N-((2-(2,6-dioxopiperidin-3-yl)-1-oxoisoindolin-5-yl)methyl)-2-oxo-2-(4-trifluoromethylphenyl)acetamide] the figure was 25 to 50%; with `O=C1CCC(N2Cc3c(CNC(=O)C(=O)c4cccc(Cl)c4)cccc3C2=O)C(=O)N1` (stereo not shown) [Compound I-88, 2-(3-chlorophenyl)-N-((2-(2,6-dioxopiperidin-3-yl)-1-oxoisoindolin-4-yl)methyl)-2-oxoacetamide], under 25%; with `COc1ccc(C(=O)C(=O)NCc2ccc3c(c2)CN(C2CCC(=O)NC2=O)C3=O)cc1` (stereo not shown) [Compound I-89, N-((2-(2,6-dioxopiperidin-3-yl)-1-oxoisoindolin-5-yl)methyl)-2-(4-methoxyphenyl)-2-oxoacetamide], over 80%.
With `N#Cc1ccc(C(=O)C(=O)NCc2ccc3c(c2)CN(C2CCC(=O)NC2=O)C3=O)cc1` (stereo not shown) [Compound I-90, 2-(4-cyanophenyl)-N-((2-(2,6-dioxopiperidin-3-yl)-1-oxoisoindolin-5-yl)methyl)-2-oxoacetamide] the figure was under 25%; with `O=C1CCC(N2Cc3cc(CNC(=O)C(=O)c4cccc(Cl)c4)ccc3C2=O)C(=O)N1` (stereo not shown) [Compound I-91, 2-(3-chlorophenyl)-N-((2-(2,6-dioxopiperidin-3-yl)-1-oxoisoindolin-5-yl)methyl)-2-oxoacetamide], over 80%; with `O=C1CCC(N2Cc3c(CNC(=O)C(=O)c4cccc(F)c4)cccc3C2=O)C(=O)N1` (stereo not shown) [Compound I-92, 2-(3-fluorophenyl)-N-((2-(2,6-dioxopiperidin-3-yl)-1-oxoisoindolin-4-yl)methyl)-2-oxoacetamide], 50 to 80%.
In the case of `O=C1CCC(N2Cc3cc(CNC(=O)C(=O)c4ccc(F)c(F)c4)ccc3C2=O)C(=O)N1` (stereo not shown) [Compound I-93, 2-(3,4-difluorophenyl)-N-((2-(2,6-dioxopiperidin-3-yl)-1-oxoisoindolin-5-yl)methyl)-2-oxoacetamide], the cytotoxicity at 1 µM was over 80%.
To `COc1cccc(C(=O)C(=O)NCc2cccc3c2CN(C2CCC(=O)NC2=O)C3=O)c1` (stereo not shown) [Compound I-94, 2-(3-methoxyphenyl)-N-((2-(2,6-dioxopiperidin-3-yl)-1-oxoisoindolin-4-yl)methyl)-2-oxoacetamide] belongs under 25%; to `COc1cccc(C(=O)C(=O)NCc2ccc3c(c2)CN(C2CCC(=O)NC2=O)C3=O)c1` (stereo not shown) [Compound I-95, N-((2-(2,6-dioxopiperidin-3-yl)-1-oxoisoindolin-5-yl)methyl)-2-(3-methoxyphenyl)-2-oxoacetamide], over 80%.
With `O=C1CCC(N2Cc3c(CNC(=O)C(=O)c4ccc5ccccc5c4)cccc3C2=O)C(=O)N1` (stereo not shown) [Compound I-96, N-((2-(2,6-dioxopiperidin-3-yl)-1-oxoisoindolin-4-yl)methyl)-2-(naphthalen-2-yl)-2-oxoacetamide] the figure was under 25%.
